How the values were obtained:
[1] = Oral bioavailability in cynomolgus monkey at 0.5 mg/kg; type: ADME, organism-based, Macaca fascicularis; settings: in vivo
[2] = Clearance in cynomolgus monkey at 0.5 mg/kg, iv; type: ADME, organism-based, Macaca fascicularis; set-up: dose 0.5 mg/kg, route intravenous; settings: in vivo
[3] = Cytotoxicity against human HuH7 cells assessed as GAPDH release; type: cell-based, Huh-7
in vitro [4] = settings: rhesus monkey
Description: (§2) Metabolic stability in monkey liver microsomes assessed as half life at 5 uM

in vitro [5] = settings: human, t1/2
Hepatitis C virus [6] = test: microbe, parasite or virus in culture; type: functional, organism-based, Hepacivirus hominis, genotype 1b, Huh-luc/neo-ET
Description: Antiviral activity against HCV-1b infected human Huh-luc/neo-ET replicon cells after 72 hrs by luciferase based replicon assay

Cynomolgus monkey [7] = test: AUC (0 to infinity) in cynomolgus monkey at 0.5 mg/kg, po; type: ADME, organism-based, Macaca fascicularis, Plasma; set-up: time infinity, dose 0.5 mg/kg, route oral; settings: in vivo
in vitro [8] = settings: rhesus monkey, Stability
Description: (§3) Metabolic stability in monkey liver microsomes assessed as compound remaining after 60 mins at 5 uM

Hepatitis C virus [9] = test: microbe, parasite or virus in culture; type: functional, organism-based, Hepacivirus hominis, subtype 1a, Huh-lunet
Description: Antiviral activity against HCV-1a infected in human Huh-lunet cells after 4 days by luciferase based replicon assay

Cynomolgus monkey [10] = test: AUC (0 to infinity) in cynomolgus monkey at 0.5 mg/kg, iv; type: ADME, organism-based, Macaca fascicularis, Plasma; set-up: time infinity, dose 0.5 mg/kg, route intravenous; settings: in vivo
in vitro [11] = settings: human
Description: Metabolic stability in human liver microsomes assessed as compound remaining after 60 mins at 1 uM

physchem = settings: aqueous medium, pH 7.5
Description: Aqueous solubility at pH 7.5

in vitro [12] = settings: human, Caco-2
Description: Apparent permeability from apical side to basolateral side of human Caco-2 cells at 10 uM after 3 hrs

Cynomolgus monkey [13] = settings: in vivo, po, 1 mg/kg
[14] = Clearance in cynomolgus monkey at 1 mg/kg, iv; type: ADME, organism-based, Macaca fascicularis; set-up: dose 1 mg/kg, route intravenous; settings: in vivo
[15] = (§1) Oral bioavailability in cynomolgus monkey at 1 mg/kg; type: ADME, organism-based, Macaca fascicularis; settings: in vivo
[16] = rhesus monkey, microsomes, 1 h, 5 µM
Description: as §3

Cynomolgus monkey [17] = settings: in vivo, iv, 1 mg/kg
[18] = rhesus monkey, microsomes, 5 µM
Description: as §2

Cynomolgus monkey [19] = test: as §1; type: ADME, organism-based, Macaca fascicularis; settings: in vivo
[20] = Hepatitis C virus, genotype 1b, Huh-luc/neo-ET, 72 h
[21] = Hepatitis C virus, subtype 1a, Huh-lunet, 96 h

half-life at 5 µM (in vitro [4]; microsomes) [h] | half-life at 1 µM (in vitro [5]; microsomes) [h] | EC50 (Hepatitis C virus [6]; [20]) [nM] | remaining at 1 h, 5 µM (in vitro [8]; microsomes) [%] | EC50 (Hepatitis C virus [9]; [21]) [nM] | remaining at 1 h, 1 µM (in vitro [11]; microsomes) [%] | half-life at 1 µM (in vitro [5]; liver microsomes) [h] | remaining at 1 h, 1 µM (in vitro [11]; liver microsomes) [%] | AUC (Cynomolgus monkey [13]) [ng·h/mL] | clearance [14] [mL/min/kg] | bioavailability [15] [%] | AUC (Cynomolgus monkey [17]) [ng·h/mL] | SMILES | CC50 [3] [nM] | further results
> 1 | 0.333 | 550 | 58 | 5400 | – | – | – | – | – | – | – | CS(=O)(=O)Nc1ccc2c(c1)S(=O)(=O)N=C(C1=C(O)[C@H]3[C@@H]4CC[C@@H](C4)[C@H]3N(Cc3ccc(F)cc3)C1=O)N2 | > 33000 | bioavailability [1]: 12%; clearance [2]: 6.5 mL/min/kg; AUC (Cynomolgus monkey [7]): 163 ng·h/mL; AUC (Cynomolgus monkey [10]): 1390 ng·h/mL
– | > 1 | 7 | – | 65 | 85 | – | – | – | – | – | – | CS(=O)(=O)Nc1ccc2c(c1)S(=O)(=O)N=C(C1=C(O)[C@@H]3[C@@H]4CC[C@@H](C4)[C@@H]3N(Cc3ccc(F)cc3)C1=O)N2 | > 1000 | –
– | – | 8 | – | 150 | – | > 1 | 100 | – | – | – | – | CS(=O)(=O)Nc1ccc2c(c1)S(=O)(=O)N=C(C1=C(O)[C@@H]3C4CCC(CC4)[C@@H]3N(Cc3ccc(F)c(F)c3F)C1=O)N2 | – | –
– | – | 7 | – | 37 | – | > 1 | 100 | 20300 | 0.37 | 45 | 44800 | CS(=O)(=O)Nc1ccc2c(c1)S(=O)(=O)N=C(C1=C(O)[C@@H]3[C@H]4CC[C@H](C4)[C@@H]3N(Cc3ccc(F)c(F)c3)C1=O)N2 | – | solubility (physchem): > 100 µM; Papp A→B at 3 h, 10 µM (in vitro [12]): 1.05 ×10⁻⁶ cm/s; Stability [16]: 95%; t1/2 [18]: 1 h
– | – | 6 | – | 34 | – | > 1 | 70 | 8780 | 0.67 | 35 | 25000 | Cc1cc(CN2C(=O)C(C3=NS(=O)(=O)c4cc(NS(C)(=O)=O)ccc4N3)=C(O)[C@@H]3[C@H]4CC[C@H](C4)[C@@H]32)ccc1F | – | half-life at 5 µM (in vitro [4]; liver microsomes): 0.817 h
– | – | 6 | – | 66 | – | > 1 | 100 | 90 | 6.3 | 3 | 2650 | CS(=O)(=O)Nc1ccc2c(c1)S(=O)(=O)N=C(C1=C(O)[C@@H]3[C@@H]([C@H]4CC[C@@H]3O4)N(Cc3ccc(F)cc3)C1=O)N2 | > 1000 | half-life at 5 µM (in vitro [4]; liver microsomes): > 1 h; solubility (physchem): > 100 µM; Papp A→B at 3 h, 10 µM (in vitro [12]): 0.08 ×10⁻⁶ cm/s; remaining at 1 h, 5 µM (in vitro [8]; liver microsomes): 100%
> 1 | > 1 | 270 | 95 | 2500 | 75 | – | – | – | – | – | – | CS(=O)(=O)Nc1ccc2c(c1)S(=O)(=O)N=C(C1=C(O)[C@H]3[C@H]4CC[C@H](C4)[C@H]3N(Cc3ccc(F)cc3)C1=O)N2 | > 33000 | bioavailability [1]: 26%; clearance [2]: 5.7 mL/min/kg; AUC (Cynomolgus monkey [7]): 409 ng·h/mL; AUC (Cynomolgus monkey [10]): 1570 ng·h/mL
– | > 1 | 0.8 | – | 6 | 86 | – | – | – | – | – | – | CS(=O)(=O)Nc1ccc2c(c1)S(=O)(=O)N=C(C1=C(O)[C@@H]3C4CCC(CC4)[C@@H]3N(Cc3ccc(F)cc3)C1=O)N2 | > 1000 | –
> 1 | > 1 | 23 | 100 | 550 | 85 | – | – | – | – | – | – | CS(=O)(=O)Nc1ccc2c(c1)S(=O)(=O)NC(C1=C(O)[C@@H]3CCC[C@@H]3N(Cc3ccc(F)cc3)C1=O)=N2 | > 100000 | solubility (physchem): > 100 µM
– | – | 7 | – | 81 | – | > 1 | 87 | – | – | – | – | CS(=O)(=O)Nc1ccc2c(c1)S(=O)(=O)N=C(C1=C(O)C3CC=CCC3N(Cc3ccc(F)cc3)C1=O)N2 (racemic) | > 1000 | –
> 1 | 0.567 | – | 91 | – | – | – | – | 30700 | – | – | 63900 | CS(=O)(=O)Nc1ccc2c(c1)S(=O)(=O)N=C(C1=C(O)C3C4CCC(C4)C3N(Cc3ccc(F)cc3)C1=O)N2 (racemic; 2a) | > 1000 | EC50 (Hepatitis C virus [6]; huh-luc/neo-et): 5 nM; F (Cynomolgus monkey [19]): 48%; EC50 (Hepatitis C virus [9]; huh-lunet): 330 nM
– | – | – | – | – | 73 | – | – | 1350 | – | – | 5500 | CS(=O)(=O)Nc1ccc2c(c1)S(=O)(=O)N=C(C1=C(O)C3C4CCC(C4)C3N(Cc3ccc(F)cc3)C1=O)N2 (racemic; 2b) | – | EC50 (Hepatitis C virus [6]; huh-luc/neo-et): 2 nM; F (Cynomolgus monkey [19]): 25%; Stability [16]: 92%; EC50 (Hepatitis C virus [9]; huh-lunet): 91 nM
> 1 | > 1 | 3 | 98 | 18 | 75 | – | – | 49400 | 0.18 | 52 | 94900 | CS(=O)(=O)Nc1ccc2c(c1)S(=O)(=O)N=C(C1=C(O)[C@@H]3[C@H]4CC[C@H](C4)[C@@H]3N(Cc3ccc(F)cc3)C1=O)N2 [SETROBUVIR] | > 100000 | –

— ChEMBL document CHEMBL1154345, “Discovery of tricyclic 5,6-dihydro-1H-pyridin-2-ones as novel, potent, and orally bioavailable inhibitors of HCV NS5B polymerase” (Bioorg Med Chem Lett, 2009)
